Assay results taken from patent US20250269072A1, “PROCESSES FOR PREPARING RADIOLABELLED CONJUGATES” (CENTENARY INSTITUTE OF CANCER MEDICINE AND CELL BIOLOGY, priority 2021, published 2025).

Experiments:
[1] = Biodistribution in healthy male rats; format: in vivo, rats (Lewis); conditions: rat
Description: Biodistribution was studied in ten healthy male rats (Lewis, Liverpool Hospital Animal Facility) aged 6-8 weeks. Five rats were administered with ^68Ga-NODAGA-GSAO. The rats were housed singly in a cage with impervious absorbent matting and at 1 hour post administration 5 rats were sacrificed by lethal carbon dioxide overdose. Immediately post mortem, blood was sampled via cardiac puncture. Two of the 5 rats were then imaged by PET CT (GE Discovery 710). The PET CT scan comprised a CT scan (80 kVp, 20 mA, helical mode, reconstructed slice thickness of 0.625 mm) followed by a PET scan (2 bed positions, 7.5 min/bed position, 256×256 reconstruction matrix, slice thickness 3.27 mm).
All of the rats were then dissected, organs sampled and weighed and counted in a gamma counter, and the cpm value converted to MBq using a known standard. The activity in the remaining carcass was measured in a dose calibrator.
Biodistribution studies were performed in a further 5 rats at two hours following ^68Ga-NODAGA GSAO administration.
Injected activity was corrected by measuring residual activity left in the syringe after injection in a dose calibrator. To correct for any dose extravasated at the injection site the tail was harvested and the activity in the tail was subtracted from the administered activity. All calculations were decayed corrected using the injection time as the reference.
Biodistribution was expressed as % ID/g and % ID/organ. % retained activity was the sum total of all activity in all individually harvested organs as well as the activity in the remaining carcass as a percentage of the injected dose. % recovered activity was the sum total of all activity in all individually harvested organs as well as the activity in the remaining carcass and excreted activity in the impervious matting as a percentage of the injected dose.

tumour deposits = assay: Human studies: tumour uptake by PET and histological correlation; format: in vivo
From the text: patient with squamous cell carcinoma of the oesophagus • 2. Person with metastatic ovarian carcinoma • 3. Person with metastatic cutaneous squamous cell carcinoma • 4. Person with invasive ductal breast carcinoma.
Whilst blood pool and clearance are reproducible, tumour uptake and clearance vary by tumour type.
Dissected tumours were fixed in formalin, embedded in paraffin and 4 μm thick sections were cut. Adjacent sections were stained for apoptotic cells using TUNEL (Abcam, Cat #206386) or morphology using haematoxylin and eosin. For TUNEL staining, sections were deparaffinized in xylene, rehydrated in decreasing concentrations of ethanol and permeabilized with Proteinase K for 20 min at room temperature. The endogenous peroxidase activity was quenched with 3% H2O2 for 5 min. Apoptotic cells were labelled with biotinylated terminal deoxynucleotidyl transferase at 37° C. in a humidified chamber for 2 h followed by a 30 min incubation with streptavidin-HRP conjugate. HRP-positive cells were developed using diaminobenzidine and sections counterstained with methyl green (Sigma). Whole sections were imaged using PowerMosaic scanning at 10× magnification on a Leica DM6000D microscope.

O=C(O)CNC(=O)[C@H](CSCC(=O)Nc1ccc([As](O)O)cc1)NC(=O)CC[C@H](NC(=O)CCC1C(=O)[O][68Ga]2[O]C(=O)CN3CCN(CCN1CC3)CC(=O)[O]2)C(=O)O (some centres unmarked) [^68Ga-NODAGA-GSAO]
injected activity retained within the animal ([1]; 1 hour): 32.4%
mean total recovered activity ([1]; 1 hour): 84.9 % of injected activity
injected activity retained within the animal ([1]; 2 hours): 21.4%
total recovered activity ([1]; 2 hours): 75.3 % of injected activity
tumour uptake SUVmean (tumour deposits; breast carcinoma): 1.8
correlation of tumour uptake with dead and dying cells (tumour deposits; histopathology): correlate with the proportion of dead and dying cells within the tumour
tumour uptake SUVmean (tumour deposits; metastatic cutaneous squamous cell carcinoma): 4.1
tumour uptake SUVmean (tumour deposits; metastatic ovarian carcinoma): 1.9
tumour uptake SUVmean (tumour deposits; patient 3, right axillary nodal metastasis): 4.1
tumour uptake SUVmean (tumour deposits; squamous cell carcinoma of the oesophagus): 3.8
tumour uptake relative to blood pool (tumour deposits; tumours with high uptake): up to 2 fold
